# According to patent US7271252B2, “Reagents for detecting efavirenz” (Roche Diagnostics Operations, Inc., priority 2003, dated 2007):
# Read-outs that look alike come from different tables or passages of the source.
# Tests used:
# [1] = cited from earlier work
# HIV [2] = conditions: cited from earlier work
# [3] = tested on: serum antibodies raised against efavirenz-KLH conjugate; assay: Competitive inhibition ELISA: binding of mouse serum antibody to N-linked BSA-efavirenz conjugate; set-up: species or system mice; conditions: free drug, serum of one mouse, OD450, FIG. 3
# Method: The sera were titered for antibody activity via an antigen specific ELISA. Wells of a styrene 96-well plate were coated with efavirenz N-linked BSA conjugate 5 by placing 50 μL of a 0.1 μg/mL efavirenz-BSA conjugate solution into 0.1 M potassium carbonate, pH 9.2, in the wells and incubating the covered plate at 37° C. for 1 hour. The solution was removed, and the wells were immediately filled with a post coat solution consisting of 1% gelatin hydrolysate, 2% sucrose, 0.1 M Tris buffer, pH 7.4, and 0.15% TWEEN 20 (all reagents from Sigma Chemical Co.), covered and incubated as above. Subsequently, the plates were rinsed once with 2% sucrose and air-dried. Once dry, the plates were sealed into aluminum foil clad plastic bags with a desiccant and stored at 4° C. until used.
# Titering consisted of preparing an initial 1:100 dilution of the sera in PBS-T, then seven serial 1:3 dilutions. […] Color that developed was read in a microplate reader equipped with a 450 nm filter. The color intensities were plotted versus the final serum dilutions, and the dilution point at which 50% of the maximum reading was obtained was recorded.
# For determining competitive inhibition, plates treated as above were used. […] Serum dilutions of twice the concentration determined above were then prepared, and 25 μL was placed into each well of the column. […]
# HIV [4] = conditions: cited from earlier work; remark: listed apart in the source
# [5] = taken with other anti-HIV medicines
structure (smiles),measurement,setting,value
O=C1Nc2ccc(Cl)cc2[C@@](C#CC2CC2)(C(F)(F)F)O1 [efavirenz],frequency of CNS toxicity at high versus mid plasma levels,[1]; efavirenz levels >4000 μg/L compared with 1000-4000 μg/L,approximately three times more frequent
same,patients reporting central nervous system (CNS) side effects,"[1]; human, in vivo",20-40%
same,patients who discontinue therapy because of severity or persistence of CNS side effects,"[1]; human, in vivo",about 4%
same,"virological failure, share of patients","HIV [2]; patients with low plasma levels of efavirenz, <1000 μg/L, 85 total patients",50%
same,"virological failure, share of patients",HIV [2]; patients with plasma levels of efavirenz 1000-4000 μg/L or more than 4000 μg/L,18-22%
same,competitive inhibition of binding of serum antibodies to the drug conjugate absorbed to the microplate,[3],confers a competitive inhibition of binding
same,amount of HIV in the blood (viral load),HIV [4]; efavirenz,lower the amount of HIV in the blood
same,CD4 cell count,HIV [4]; [5],increase their CD4 cell count
same,patients' viral load,HIV [4]; [5],reduce patients' viral load
